Assay results: article PMC7335359, “Design and Synthesis of Dihydroxamic Acids as HDAC6/8/10 Inhibitors” (Chemmedchem, 2020)

How the values were obtained:
HDAC10 [1] = target: T1, HDAC10 (Homo sapiens, UniProt Q969S8); assay: ligand displacement TR-FRET assay, HDAC10; type: binding; design: host or cells: Sf21 insect cells (baculovirus); settings: ligand-displacement FRET assay; read-out: HDAC10 pIC50 (converted)
T1 sequence (Q969S8 1-669): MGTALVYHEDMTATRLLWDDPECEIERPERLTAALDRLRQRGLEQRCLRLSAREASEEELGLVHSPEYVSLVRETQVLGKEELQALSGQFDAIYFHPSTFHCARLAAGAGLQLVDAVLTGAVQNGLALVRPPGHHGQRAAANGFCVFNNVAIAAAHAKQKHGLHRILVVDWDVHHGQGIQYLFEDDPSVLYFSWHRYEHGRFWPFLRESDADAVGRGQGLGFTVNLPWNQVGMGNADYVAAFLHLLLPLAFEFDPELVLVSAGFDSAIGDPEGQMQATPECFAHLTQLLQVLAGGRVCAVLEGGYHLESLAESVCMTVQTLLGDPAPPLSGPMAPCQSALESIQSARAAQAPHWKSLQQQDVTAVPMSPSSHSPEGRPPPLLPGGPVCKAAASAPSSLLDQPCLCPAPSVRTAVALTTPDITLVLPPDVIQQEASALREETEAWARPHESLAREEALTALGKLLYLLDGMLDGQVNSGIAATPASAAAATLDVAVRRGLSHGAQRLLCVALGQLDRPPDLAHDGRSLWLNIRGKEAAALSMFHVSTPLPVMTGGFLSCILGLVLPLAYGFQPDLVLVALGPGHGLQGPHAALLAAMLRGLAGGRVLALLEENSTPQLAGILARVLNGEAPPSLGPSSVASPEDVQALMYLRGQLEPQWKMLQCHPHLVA
Experimental: Expression and purification of TwinStrepII‐GST‐HDAC10: A synthetic gene encoding TwinStrepII‐GST‐HDAC10 (human) was ordered from GeneArt (Thermo Fischer Scientific) and subcloned into the pFastBac1 vector. The resulting construct was used for transposition in E. coli DH10EMBacY cells. The isolated bacmid DNA was then used to generate the recombinant baculovirus. For protein expression, 10 mL of baculovirus was added to 1 L of Sf21 cells at a density of 1×10^6 cells/mL. The infected Sf21 cells were grown for 72 h in Sf‐900 III SFM medium (Thermo Fischer Scientific) at 27 °C. Cells were harvested by centrifugation and re‐suspended in running buffer (100 mM Tris pH 8.0, 150 mM NaCl, 1 mM EDTA and 1 mM DTT) supplemented with 10 mM MgCl2, benzonase and cOmplete protease inhibitors (Merck). […] The clarified lysate was then loaded onto a 5 mL Strep‐Tactin Superflow high capacity column (IBA) pre‐equilibrated in running buffer. After sample loading and washing, the TwinStrepII‐GST‐HDAC10 protein was eluted in running buffer supplemented with 5 mM desthiobiotin (IBA). The elution fractions containing TwinStrepII‐GST‐HDAC10 were pooled and concentrated before being injected onto a HiLoad 16/600 Superdex 200 pg size exclusion chromatography column (GE Healthcare) pre‐equilibrated with 25 mM HEPES/NaCl pH 7.5, 150 mM NaCl, 0.5 mM EDTA, 1 mM DTT and 10 % glycerol. Samples were eluted from the size exclusion chromatography column in the same buffer, flash‐frozen in liquid N2 and stored at −80 °C.
The TR‐FRET measurements of the monohydroxamic acids in this manuscript were measured in the original assay format, which is described directly below this paragraph. The TR‐FRET measurements of the dihydroxamic acids in this manuscript were measured in the modified format, which is described two paragraphs below this one.
The concentrations of reagents in 10 μL final assay volume were 3 nM GST‐HDAC10, 30 nM “Tubastatin‐Alexa647‐Tracer” and 0.5 nM Eu‐anti‐GST. GST‐HDAC10 and LanthaScreen™ Eu‐anti‐GST Antibody were purchased from Life Technologies, and the Tubastatin‐Alexa647‐Tracer was synthesized in‐house as previously described.19 An 11‐fold 1 : 3‐serial dilution of compounds starting at 2 mM was prepared in 384 well pp‐plates (Greiner) from 10 mM stocks in DMSO and 1 μL was transferred to assay plates. Nine μL of the reagent‐mix was added and the plate was incubated for 1 h at RT before TR‐FRET was measured in an EnVision™ plate reader equipped with a TR‐FRET Laser module. […] Percent inhibition was calculated for each well from negative control wells containing 2 % DMSO and positive control wells containing 20 μM SAHA. The resulting dose‐response curves were fitted in ActivityBase (IDBS) using a four‐parameter logistic model and pIC50‐values were calculated.
After drug dosing to the premixed assay reagents in buffer, plates were shaken (800 rpm orbital shaker, 30 s), centrifuged (300 g, 1 min) and incubated at room temperature in the dark for 60 min. TR‐FRET was measured with a CLARIOstar (BMG Labtech) plate reader, equipped with TR‐FRET filters.

HDAC8 = target: T2, HDAC8 (Homo sapiens, UniProt Q9BY41); assay: HDAC-Glo I/II enzymatic assay, HDAC8; type: biochemical; settings: read-out: HDAC8 pIC50 (converted)
T2 construct: purchased BPS Bioscience 50008
T2 sequence (Q9BY41 1-377): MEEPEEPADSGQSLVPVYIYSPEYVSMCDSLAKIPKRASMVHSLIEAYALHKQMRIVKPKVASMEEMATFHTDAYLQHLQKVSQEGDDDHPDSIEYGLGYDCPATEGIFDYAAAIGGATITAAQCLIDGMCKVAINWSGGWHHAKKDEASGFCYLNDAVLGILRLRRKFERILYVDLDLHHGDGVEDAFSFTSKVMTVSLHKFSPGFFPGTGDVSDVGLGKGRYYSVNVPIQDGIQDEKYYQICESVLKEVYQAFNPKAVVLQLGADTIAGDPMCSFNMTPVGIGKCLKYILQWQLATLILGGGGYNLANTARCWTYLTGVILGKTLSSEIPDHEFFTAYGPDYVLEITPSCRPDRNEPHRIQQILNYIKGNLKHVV
Experimental: Inhibitors were tested at eight serial dilutions in triplicate ranging from 50 μM–86,7 pM (HDAC6) or 100 μM–8,67 nM (HDAC1,2,3,8). Drug dosing was performed from 10 mM and 0.1 mM DMSO stock solutions with a D300e Digital Dispenser (Tecan). HDACs (7 ng/mL for HDAC1, 10 ng/mL for HDAC2, 200 ng/mL for HDAC3/Ncor2 complex, 100 ng/mL for HDAC6, 200 ng/mL for HDAC8) and inhibitors were incubated together for 30 min at room temperature. After addition of the HDAC‐Glo™ I/II reagent, plates were shaken (800 rpm orbital shaker, 30 s), centrifuged (300 g, 1 min) and incubated at room temperature for 30 min. Luminescence was detected with a CLARIOstar (BMG Labtech) plate reader.

HDAC10 [2] = target: T1, HDAC10; design: host or cells: Sf21 insect cells (baculovirus); method as in PMID 30964290; settings: previously shown; cited from earlier work
[3] = test system: lysosomal staining with LysoTracker DND‐99 (HDAC10 knockdown phenotype); assay: LysoTracker assay in SK-N-BE(2)C cells; type: cell-based; settings: 10 μM inhibitor, normalized to DMSO
Experimental: LysoTracker assay: SK‐N‐BE(2)‐C cells were seeded into 6‐well dishes at a density of 1.5×10^5 cells per well. Cells were treated with inhibitor over night at concentrations indicated in the figure and stained the following day for 1 h with 50 nM LysoTracker® Red DND‐99 in medium under standard cell culture conditions. Cells were washed with ice‐cold RPMI without phenol‐red and trypsinized for 3 min at 37 °C. Detached cells were centrifuged for 3 min at 8600 g and re‐suspended in ice‐cold RPMI without phenol red. Mean LysoTracker fluorescence was quantified on a BD FACSCanto II platform using the PE filter setting. Data were normalized to mean LysoTracker fluorescence of solvent (DMSO) treated cells.

[4] = test system: SK‐N‐BE(2)C neuroblastoma cell line; assay: SK-N-BE(2)C cell viability assay (CellTiter-Blue); type: cell-based; settings: SK-N-BE(2)C cells
Experimental: Cell viability assay: SK‐N‐BE(2)C cells were cultured in Dulbecco's modified Eagle medium (DMEM, Lonza, Basel, Switzerland) supplemented with 10 % fetal calf serum (FCS, Sigma‐Aldrich) and 1 % non‐essential amino acids (NEAA, Lonza). SK‐N‐BE(2)C cells were seeded from a confluent flask into 96‐well plates in 100 μL full growth medium at a density of 5×10^3 cells per well the day before treatment. Cells were treated in triplicates with drug concentrations as indicated in the respective figure. Drugs were dosed from 50 mM and 200 mM stock solutions with a D300e Digital Dispenser (Tecan) and DMSO concentrations were normalized to 0.2 % for all wells. Plates were shaken (1000 rpm orbital shaker, 30 s) and incubated under standard culture conditions for 72 h. To each well 20 μL of CellTiter‐Blue® reagent (G8081, Promega) was added, plates were shaken (600 rpm orbital shaker, 20 s) and incubated at 37 °C overnight. Fluorescence was measured (extinction/emission: 570 nm/590 nm) on a FluoStar Optima (BMG Labtech) plate reader. Cell viability was normalized with untreated positive controls and cell‐free negative controls. IC50‐values were calculated as described in the BRET assay.

HDAC10 [5] = target: T1, HDAC10; assay: cellular BRET HDAC10 target engagement assay (stably transfected HeLa cells); type: cell-based; design: host or cells: HeLa (stably transfected mono-clones); settings: cellular target engagement, one experiment in triplicate; read-out: HDAC10 BRET pIC50 (converted)
Experimental: Production of mono‐clones stably expressing HDAC‐nanoBRET proteins: Plasmids expressing a fusion of HDAC10 with nanoluciferase were obtained from Promega (N2170). HeLa cells (0.75×10^6) were seeded in a 6 cm dish and after 24 h were transfected with a mix of 10 μg plasmid and 3 μL Fugene in 200 μL OptiMEM. In detail, cells were washed with pre‐warmed OptiMEM and subsequently overlaid with 2.3 mL of OptiMEM. After addition of 200 μL transfection mix, cells were incubated for 24 h at 37 °C. Cells were than trypsinized and 0.2×10^5 cells were seeded into both 10 cm and 15 cm dishes. Transformants were selected with 1 mg/mL G‐418 for 6 days with a media change after 3 days. Clones which formed colonies were picked by rinsing plates with 3 mL Trypsin/EDTA (Sigma T3924) followed by a 2 min incubation with 300 μL Trypsin/EDTA at 37 °C. Colonies were then loosened and aspirated with a 10 μL filter tip and transferred to 24‐well plates containing selection medium.
Culture of stable BRET cell lines: Stably transfected HeLa cells were cultivated under sterile conditions in polystyrene cell culture flasks (658170, Greiner) at 37 °C and 5 % CO2 in a humidified atmosphere. DMEM growth medium (D6049, Sigma) was supplemented with 10 % FCS (FBS‐12A, Capricorn Scientific), 1 % penicillin‐streptomycin (P4333, Sigma) and 1 mg/mL Geneticin (2039.3, Roth). At confluency, cells were passaged by removing old medium, DPBS (14190‐094, gibco) wash, trypsination (T4049, Sigma) and seeding in fresh growth medium.
BRET assay: The intracellular target engagement assay on HDAC10 was performed as described by the kit manufacturer in a 96‐well plate (3600, Corning) format with 1.9×10^4 cells per well and a tracer concentration of 0.3 μM. […] Drug dosing was performed from 10 mM and 1 mM DMSO stock solutions with a D300e Digital Dispenser (Tecan), DMSO concentrations were normalized to 0.5 % for all wells. Assay plates were incubated at 37 °C for 2 h followed by measurement of 450 nm and 650 nm luminescence (80 nm bandwidth) at room temperature with a CLARIOstar (BMG Labtech) plate reader 2 min after NanoLuc substrate addition.

[6] = test system: acetylation of the HDAC8 substrate SMC3; assay: Western blot of SMC3 acetylation in SK-N-BE(2)C cells; type: cell-based; settings: relative to solvent control
Experimental: Western blot analysis of SMC3, tubulin and histone H3 acetylation: For the analysis of protein acetylation, 1.5–2×10^6 SK‐N‐BE(2)‐C cells were seeded per 10 cm dish and allowed to adhere overnight. Cells were treated for 18 h (Figure 4B) or 6 h (Figure 4E) with inhibitors at concentrations indicated in the respective figure. […] Cell debris was removed by centrifugation (15 000 g for 10 min at 12 °C).

Row | Structure (SMILES) | IC50 (HDAC10 [1]) [nM] | IC50 (HDAC8) [nM] | further results
1 | O=C(NO)c1ccc(Cn2ccc3ccccc32)cc1 [Compound 1a] | 66.1 | 380 | 
2 | CN(C)Cc1cn(Cc2ccc(C(=O)NO)cc2)c2ccccc12 [Compound 1b] | 5.25 | 955 | selectivity for HDAC10 over HDACs 1, 2, and 3 (HDAC10 [2]): > 100 fold
3 | CN1CCc2c(c3ccccc3n2Cc2ccc(C(=O)NO)cc2)C1 [Compound 1c, reference compound] |  |  | lysosomal staining with LysoTracker DND-99 (HDAC10 knockdown phenotype) [3]: effective; cytotoxicity (extent of effect) ([4]; Figure S1): fully cytotoxic
4 | O=C(NO)c1ccc(Cc2c[nH]c3ccccc23)cc1 [Compound 1d, 4-((1H-indol-3-yl)methyl)-N-hydroxyb en zamide] | 27.5 |  | IC50 (HDAC10 [5]): 39.8 nM
5 | O=C(NO)c1ccc(Cn2ncc3ccccc32)cc1 [Compound 1f] | 234 | 389 | 
6 | COc1ccc(Cn2ccc3ccc(C(=O)NO)cc32)cc1 [Compound 2a] |  |  | cytotoxicity (extent of effect) ([4]; Figure S1): not fully cy totoxic; Emax ([4]; Figure S1, read-out: maximum effect, cell growth inhibition): 62%; EC50 ([4]; read-out: EC50 dose-response curve (Figure S1)): 8100 nM; acetylation of SMC3 (HDAC8 substrate), Western blot [6]: increased acetylation

Second part, led by results:

Row | IC50 (HDAC10 [1]) [nM] | IC50 (HDAC8) [nM] | Structure (SMILES) | further results
7 | 1620 | 49 | COc1ccc(Cn2cc(CN(C)C)c3ccc(C(=O)NO)cc32)cc1 [Compound 2b] | 
8 | 6460 | 141 | COc1ccc(Cn2c3c(c4ccc(C(=O)NO)cc42)CN(C)CC3)cc1 [Compound 2c] | 
9 | 3160 | 69.2 | COc1ccc(Cc2c[nH]c3ccc(C(=O)NO)cc23)cc1 [Compound 2d] | 
10 | 661 | 43.7 | COc1ccc(Cc2cn(CCN(C)C)c3ccc(C(=O)NO)cc23)cc1 [Compound 2e] | 
11 | 19100 | 20.9 | COc1ccc(Cn2ncc3ccc(C(=O)NO)cc32)cc1 [Compound 2f] | 
12 | 6920 | 29.5 | COc1ccc(Cn2nc(CN(C)C)c3ccc(C(=O)NO)cc32)cc1 [Compound 2g] | acetylation of SMC3 (HDAC8 substrate), Western blot [6]: increased acetylation
